In patent US9701681B2, “Fused ring heteroaryl compounds and their use as Trk inhibitors” (CMG Pharmaceutical Co., Ltd., priority 2014, dated 2017):

Molecular target: T1, TRK A, B & C kinase
T1 construct: fused on or other part: Carna's Trk kinases are usually GST-tagged cytoplasmic domains
Assay: TRK A, B & C kinase assay (ADP-Glo / HTRF KinEASE-TK)
Assay type: biochemical
Settings: ADP-Glo or HTRF KinEASE-TK kit, isoform not specified, read-out: IC50 (nM) Enzymatic assay
Protocol: ADP-Glo assay kit was purchased from Promega. poly (Glu, Tyr), Magnesium sulfate, Bovine serum albumin (BSA) and dimethylsulfoxide(DMSO) were purchased from Sigma-Aldrich. Tris-HCl buffer was purchased from BD Gentest. HTRF KinEASE-TK kit was purchased from cisbio. TRK A, B & C kinase was purchased from Carna bioscience.
Kinase assay was performed for Chemical Compounds 1-61 using two methods using luminescent ADP-Glo assay kit (Promega) and HTRF KinEASE-TK assay kit (cisbio). The luminescent ADP-Glo assay kit (Promega) measures ADP formed from a kinase reaction. ADP converted into ATP, which is then converted into light by Ultra-Glo luciferase. The HTRF KinEASE-TK assay kit (cisbio) measures tyrosine kinase activities using one substrate and a universal detection system.
ADP-Glo Assay Kit (Promega)
The protein kinase assay was performed for Chemical Compounds 1-61 at […] concentrations are 0.4 ng/ul of TrKA, 0.5 ng/ul of TrKB and 3 ng/ul of TrKC, respectively), 5 μL of 1 ug/ul stock solution of poly(glu, Tyr), 5 μL of compounds or assay buffer, 5 μL of ATP (125 μM stock solution).
The assay was started by incubating the reaction mixture in a 96-well plate at 30° C. for 1 hr. After the incubation, the assay was terminated by the addition of 25 […] Detection Reagent was added, and the 96-well plate was shaken and then incubated for additional 30 min at ambient temperature. The 96-well reaction plate was then read on an Enspire plate reader. The IC50 values were derived through a curve fitting using SigmaPlot.
HTRF KinEASE-TK Assay Kit (Cisbio)
The HTRF KinEASE-TK assay was performed for Chemical Compounds 1-61 in 384-well low volume microplate (Greiner). The HTRF KinEASE-TK assay format involves the two steps. The first step is kinase reaction step. This kinase reaction step was performed at RT (room temperature) in final volume of 10 ul according to the following assay reaction recipe: 10 ul of kinase mixture (Kinase (2 ul)+ATP (2 ul)+Substrate (2 ul)+Compound (4 ul)). Kinase final concentrations were 0.3 ng/ul of TRKA, 0.1 ng/ul of TRKB, 0.03 ng/ul of TRKC, respectively. ATP final concentrations were 14.7 uM (TRKA), 4.77 uM (TRKB), 25.6 uM (TRKC) respectively. TK-substrate final concentration was 0.3 ng/ul. The mixtures exposed to Dose response concentration (DRC) compound from 0 to 100 nM for 40 min. During the kinase reaction step, the kinase reaction was started by the addition of ATP. Kinase phosphorylates the substrate.
The second is detection step. 10 ul of detection reagents (5 ul Sa-XL 665 in EDTA+5 ul TK Antibody-Eu in EDTA) was added to kinase mixture. This step was performed at room temperature for 1 hr. The detection reagent detects phosphorylated substrates.
Finally 384-well reaction plate was then read on FlexStation 3 machine. The fluorescence was measured at 620 nm (Cryptate) and 665 nm (XL665). A ratio is calculated ([…]/620)×10^4 for each well. The IC50 value was derived through a curve fitting using GraphPad Prism. Table 1 below includes the results of the assays.

| Compound | IC50 [nM] |
| --- | --- |
| Fc1ccc(F)c([C@H]2CCCN2c2ccn3ncc(-c4nnc(N5CCNCC5)o4)c3n2)c1 [Chemical Compound 18, (R)-2-(5-(2-(2,5-difluorophenyl)pyrrolidin-1-yl)pyrazolo[1,5-a]pyrimidin-3-yl)-5-(piperazin-1-yl)-1,3,4-oxadiazole] | > 100 |
| Fc1ccc(F)c([C@H]2CCCN2c2ccn3ncc(-c4nnc(-c5cn[nH]c5)s4)c3n2)c1 [Chemical Compound 19, (R)-2-(5-(2-(2,5-difluorophenyl)pyrrolidin-1-yl)pyrazolo[1,5-a]pyrimidin-3-yl)-5-(1H-pyrazol-4-yl)-1,3,4-thiadiazole] | < 10 |
| Fc1ccc(F)c([C@H]2CCCN2c2ccn3ncc(-c4nnc(-c5cc[nH]n5)s4)c3n2)c1 [Chemical Compound 20, (R)-2-(5-(2-(2,5-difluorophenyl)pyrrolidin-1-yl)pyrazolo[1,5-a]pyrimidin-3-yl)-5-(1H-pyrazol-3-yl)-1,3,4-thiadiazole] | > 100 |
| O=C(Nc1nnc(-c2cnn3ccc(N4CCC[C@@H]4c4cc(F)ccc4F)nc23)s1)c1ccccc1 [Chemical Compound 21, (R)—N-(5-(5-(2-(2,5-difluorophenyl)pyrrolidin-1-yl)pyrazolo[1,5-a]pyrimidin-3-yl)-1,3,4-thiadiazol-2-yl)benzamide] | > 100 |
| Fc1ccc(F)c([C@H]2CCCN2c2ccn3ncc(-c4nnc(N5CCNCC5)s4)c3n2)c1 [Chemical Compound 22, (R)-2-(5-(2-(2,5-difluorophenyl)pyrrolidin-1-yl)pyrazolo[1,5-a]pyrimidin-3-yl)-5-(piperazin-1-yl)-1,3,4-thiadiazole] | < 10 |
| Fc1ccc(F)c([C@H]2CCCN2c2ccn3ncc(-c4nnc(N5CCCNCC5)s4)c3n2)c1 [Chemical Compound 23, (R)-2-(1,4-diazepan-1-yl)-5-(5-(2-(2,5-difluorophenyl)pyrrolidin-1-yl)pyrazolo[1,5-a]pyrimidin-3-yl)-1,3,4-thiadiazole] | < 10 |
| Fc1ccc(F)c([C@H]2CCCN2c2ccn3ncc(-c4nnc(C5CCNCC5)o4)c3n2)c1 [Chemical Compound 24, (R)-2-(5-(2-(2,5-difluorophenyl)pyrrolidin-1-yl)pyrazolo[1,5-a]pyrimidin-3-yl)-5-(piperidin-4-yl)-1,3,4-oxadiazole] | < 10 |
| Fc1ccc(F)c([C@H]2CCCN2c2ccn3ncc(-c4cn(C5CCNCC5)nn4)c3n2)c1 [Chemical Compound 33, (R)-5-(2-(2,5-difluorophenyl)pyrrolidin-1-yl)-3-(1-(piperidin-4-yl)-1H-1,2,3-triazol-4-yl)pyrazolo[1,5-a]pyrimidine] | < 10 |
| Fc1ccc(F)c([C@H]2CCCN2c2ccn3ncc(-c4cn(C5CCCNC5)nn4)c3n2)c1 (stereo partly drawn) [Chemical Compound 34, 5-((R)-2-(2,5-difluorophenyl)pyrrolidin-1-yl)-3-(1-(piperidin-3-yl)-1H-1,2,3-triazol-4-yl)pyrazolo[1,5-a]pyrimidine] | < 10 |
| Fc1ccc(F)c([C@H]2CCCN2c2ccn3ncc(-c4cn(C5CCNC5)nn4)c3n2)c1 (stereo partly drawn) [Chemical Compound 35, 5-((R)-2-(2,5-difluorophenyl)pyrrolidin-1-yl)-3-(1-(pyrrolidin-3-yl)-1H-1,2,3-triazol-4-yl)pyrazolo[1,5-a]pyrimidine] | < 10 |
| O=C(Cn1cc(-c2cnn3ccc(N4CCC[C@@H]4c4cc(F)ccc4F)nc23)nn1)N1CCNCC1 [Chemical Compound 37, (R)-2-(4-(5-(2-(2,5-difluorophenyl)pyrrolidin-1-yl)pyrazolo[1,5-a]pyrimidin-3-yl)-1H-1,2,3-triazol-1-yl)-1-(piperazin-1-yl)ethan-1-one] | < 10 |
| O=C1CN(C(=O)/C=C/c2cnn3ccc(N4CCC[C@@H]4c4cc(F)ccc4F)nc23)CCN1 [Chemical Compound 51, (R,E)-4-(3-(5-(2-(2,5-difluorophenyl)pyrrolidin-1-yl)pyrazolo[1,5-a]pyrimidin-3-yl)acryloyl)piperazin-2-one] | < 10 |
| CC(C)(O)C1CN(C(=O)/C=C/c2cnn3ccc(N4CCC[C@@H]4c4cc(F)ccc4F)nc23)CCN1 (stereo partly drawn) [Chemical Compound 52, (E)-3-(5-((R)-2-(2,5-difluorophenyl)pyrrolidin-1-yl)pyrazolo[1,5-a]pyrimidin-3-yl)-1-(3-(2-hydroxypropan-2-yl)piperazin-1-yl)prop-2-en-1-one] | < 10 |
| CN1CCN(C(=O)/C=C/c2cnn3ccc(N4CCC[C@@H]4c4cc(F)ccc4F)nc23)CC1 [Chemical Compound 53, (R,E)-3-(5-(2-(2,5-difluorophenyl)pyrrolidin-1-yl)pyrazolo[1,5-a]pyrimidin-3-yl)-1-(4-methylpiperazin-1-yl)prop-2-en-1-one] | < 10 |
| CC(C)N1CCN(C(=O)/C=C/c2cnn3ccc(N4CCC[C@@H]4c4cc(F)ccc4F)nc23)CC1 [Chemical Compound 55, (R,E)-3-(5-(2-(2,5-difluorophenyl)pyrrolidin-1-yl)pyrazolo[1,5-a]pyrimidin-3-yl)-1-(4-isopropylpiperazin-1-yl)prop-2-en-1-one] | < 10 |
| O=C(/C=C/c1cnn2ccc(N3CCC[C@@H]3c3cc(F)ccc3F)nc12)N1CCCNCC1 [Chemical Compound 56, (R,E)-1-(1,4-diazepan-1-yl)-3-(5-(2-(2,5-difluorophenyl)pyrrolidin-1-yl)pyrazolo[1,5-a]pyrimidin-3-yl)prop-2-en-1-one] | > 100 |
| CC1(O)CCN(C(=O)/C=C/c2cnn3ccc(N4CCC[C@@H]4c4cc(F)ccc4F)nc23)CC1 [Chemical Compound 58, (R,E)-3-(5-(2-(2,5-difluorophenyl)pyrrolidin-1-yl)pyrazolo[1,5-a]pyrimidin-3-yl)-1-(4-hydroxy-4-methylpiperidin-1-yl)prop-2-en-1-one] | < 10 |
| (R,E)-3-(5-(2-(2,5-difluorophenyl)pyrrolidin-1-yl)pyrazolo[1,5-a]pyrimidin-3-yl)-1-(4-ethylpiperazin-1-yl)prop-2-en-1-one [Chemical Compound 54] | > 100 |

System: KM12-luc cells
Assay: Cell proliferation assay (KM12)
Settings: 72 hours exposure, read-out: IC50 (nM) Cell-based assay (KM12)
Protocol: Doxorubicin was purchased from Sigma Aldrich (D1515). All compounds were diluted in DMSO (Sigma Aldrich, D2650). AlamarBlue® cell viability reagent was purchased from Thermo Scientific (88952). CellTiter 96® AQueous One Solution Cell proliferation assay was purchased from Promega. KM12-luc cells were obtained from JCRB (National Institute of Health Sciences, Tokyo, Japan). They were maintained in DMEM medium (GIB-11965-118) supplemented with 10% fetal bovine serum (Gibco, 16000-044) and MEM Non-Essential Amino Acids Solution (Thermo Scientific, 11140-050). TF-1 cells were obtained from ATCC. They were maintained in RPMI medium (GIB-A10491) supplemented with 10% fetal bovine serum (Gibco, 16000-044), GM-CSF (Thermo Scientific, 11140-050), and β-NGF (R&D systems). Trypsin/EDTA was purchased from Gibco (GIB-25300-054, 0.05%). 96-well plates were purchased from Corning Inc.
The proliferation assay was performed for Chemical Compounds 1-61 s in media supplemented with 10% FBS, using AlamarBlue® cell viability reagent or CellTiter 96® AQueous One Solution Cell proliferation assay kit. Cells were cultured in humidified 37° C. incubator with 5% CO2. To evaluate the antiproliferation activity of compounds, TF-1 cells were adjusted to GM-CSF free media (RPMI, 10% FBS, and 1% penicillin-streptomycin) for 16 hr and were seeded in 96-well plates at 30,000 cells/well with medium (RPMI, 10% FBS, 1% penicillin-streptomycin and 10 ng/ml human β-NGF). KM12-luc were seeded at 10,000 cells per well into 96-well plates. After overnight incubation, serial dilutions of compounds were added to triplicate wells, and cells were exposed for 72 hours. The final concentration of DMSO was adjusted to 0.5% in media. Quantitation of cell growth was assessed using two kinds of reagent. 20 ul of AlamarBlue® reagent in an amount equal to 10% of the culture volume was added to each well and were incubated in humidified 37° C. incubator with 5% CO2 for 2 hr. Otherwise, 20 ul of CellTiter 96® reagent was added to each well and were incubated in the same conditions as previously described. Data were plotted, and GI50 values were calculated using GraphPad software. Table 1 below includes the results of the assays.

| Compound | IC50 [nM] |
| --- | --- |
| CN1CCN(C(=O)/C=C/c2cnn3ccc(N4CCC[C@@H]4c4cc(F)ccc4F)nc23)CC1 [Chemical Compound 53, (R,E)-3-(5-(2-(2,5-difluorophenyl)pyrrolidin-1-yl)pyrazolo[1,5-a]pyrimidin-3-yl)-1-(4-methylpiperazin-1-yl)prop-2-en-1-one] | < 100 |
| CC(C)N1CCN(C(=O)/C=C/c2cnn3ccc(N4CCC[C@@H]4c4cc(F)ccc4F)nc23)CC1 [Chemical Compound 55, (R,E)-3-(5-(2-(2,5-difluorophenyl)pyrrolidin-1-yl)pyrazolo[1,5-a]pyrimidin-3-yl)-1-(4-isopropylpiperazin-1-yl)prop-2-en-1-one] | < 100 |
| CC1(O)CCN(C(=O)/C=C/c2cnn3ccc(N4CCC[C@@H]4c4cc(F)ccc4F)nc23)CC1 [Chemical Compound 58, (R,E)-3-(5-(2-(2,5-difluorophenyl)pyrrolidin-1-yl)pyrazolo[1,5-a]pyrimidin-3-yl)-1-(4-hydroxy-4-methylpiperidin-1-yl)prop-2-en-1-one] | < 10 |
